{
  "source": "paper PMC4500398",
  "about": "“All-Purpose Containers? Lipid-Binding Protein – Drug Interactions” (PLoS ONE, 2015)",
  "key": {"[1]": {"target": "T1, c-FABPL (fatty acid-binding protein from G. gallus liver) (Gallus gallus, UniProt P80226)", "T1 sequence (P80226 2-126)": "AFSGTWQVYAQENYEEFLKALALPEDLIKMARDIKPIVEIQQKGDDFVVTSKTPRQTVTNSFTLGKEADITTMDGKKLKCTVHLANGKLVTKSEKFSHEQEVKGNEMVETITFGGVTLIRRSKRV", "experiment": "[…]-NMR titration (n.O.e., T1) and competition with cholate", "design": "gene FABP1; purified from chicken liver, delipidated"}, "[2]": {"target": "T1, c-FABPL (fatty acid-binding protein from G. gallus liver)", "experiment": "[…]-NMR (T1, n.O.e.) and displacement by cholate", "design": "gene FABP1; purified from chicken liver, delipidated"}, "[3]": {"target": "T1, c-FABPL (fatty acid-binding protein from G. gallus liver)", "experiment": "[…]-NMR titration with […]-enriched ligand; […]-NMR competition", "design": "gene FABP1; apo protein, purified from chicken liver"}, "[4]": {"target": "T1, c-FABPL (fatty acid-binding protein from G. gallus liver)", "experiment": "[…]-NMR titration with […]-enriched ligand", "design": "gene FABP1; apo protein, purified from chicken liver"}},
  "data": [
    {"compound": "CC(C)n1c(/C=C/[C@@H](O)C[C@@H](O)CC(=O)O)c(-c2ccc(F)cc2)c2ccccc21", "note": "(relative stereo) [compound 14, fluvastatin]", "values": [
      {"measurement": "19F-NMR titration (n.O.e., T1) and competition with cholate", "setting": "[1]", "value": "Symmetric competition experiments between fluvastatin and cholate"}
    ]},
    {"compound": "CCCCCCCCCCCCCCC(F)C(=O)O", "note": "(stereo not shown) [16–17, 2-fluoropalmitate]", "values": [
      {"measurement": "19F-NMR (T1, n.O.e.) and displacement by cholate", "setting": "[2]", "value": "only using a tenfold excess of cholate the ligand was completely removed from the protein"}
    ]},
    {"compound": "C[C@H](CCC(=O)O)[C@H]1CC[C@H]2[C@@H]3[C@H](O)C[C@@H]4C[C@H](O)CC[C@]4(C)[C@H]3C[C@H](O)[C@]12C", "note": "[compound 7, cholate]", "values": [
      {"measurement": "13C-NMR titration with 13C-enriched ligand; 19F-NMR competition", "setting": "[3]", "value": "The titration indicates two sites of comparable affinity for cholate, and of different affinity for glycocholate"}
    ]},
    {"compound": "C[C@H](CCC(=O)NCC(=O)O)[C@H]1CC[C@H]2[C@@H]3[C@H](O)C[C@@H]4C[C@H](O)CC[C@]4(C)[C@H]3C[C@H](O)[C@]12C", "note": "[glycocholate]", "values": [
      {"measurement": "13C-NMR titration with 13C-enriched ligand", "setting": "[4]", "value": "The titration indicates two sites of comparable affinity for cholate, and of different affinity for glycocholate"}
    ]}
  ]
}
